# Test results published in patent US20170058288A1, “OSNF-YA7 GENE FOR INCREASING DROUGHT STRESS RESISTANCE OF PLANT AND USE THEREOF” (SNU R&DB FOUNDATION, priority 2014, published 2017).
# What was measured:
# OsNF-YA4 = OsNF-YA4 gene expression in response to ABA treatment (qRT-PCR); format: in vivo, rice (Oryza sativa); settings: short-term treatment (24 hours) with 10 and 100 μM ABA, NT rice plant, compared to untreated control group
# Description: (§1) To analyze expression patterns of OsNF-YA4 and OsNF-YA7 gene in response to abiotic stress, non-transgenic rice plants (NT plants; breed—“Nakdong”) were grown in soil for 4 week in green house. The whole plant of a 4-week old non-transgenic plant was air-dried for 3 hrs for drought stress treatment. For the treatment of salt stress, whole plants were transferred to a solution containing 200 mM of NaCl and kept for 24 hours. For the treatment of low temperature stress, whole plants were transferred to a 4° C. low temperature chamber and kept for 24 hrs. For the analysis of OsNF-YA4 and OsNF-YA7 gene expression pattern in response to ABA, NT plant were grown in MS media for 2 week in growth chamber. For the short-term treatment with ABA, the whole plants were transferred to a solution containing 10 or 100 μM ABA and treated with the solution for 24 hours. For the long-term treatment with ABA, NT plant seeds were planted and grown on MS media supplemented with 0, 0.5, 1 or 3 μM of ABA for 2 weeks.
# (§2) Leaf and root tissues of a plant which has been treated with either abiotic stress or absicic acid were collected and frozen. […] To analyze the gene expression level, quantitative PCR was carried out by using Mx3000p real-time PCR machine and Platinum® SYBR® Green qPCR SuperMix-UDG system (Invitrogen, USA). […]
# OsNF-YA7 = OsNF-YA7 gene expression in response to ABA treatment (qRT-PCR); format: in vivo, rice (Oryza sativa); settings: short-term treatment (24 hours) with 10 and 100 μM ABA, NT rice plant, compared to untreated control group
# Description: as §1, §2
compound,measurement,setting,value
"CC1=CC(=O)CC(C)(C)[C@@]1(O)/C=C/C(C)=C\C(=O)O [ABA, Abscisic acid]",increase in OsNF-YA4 expression level,OsNF-YA4,4 fold
same,decrease in OsNF-YA7 expression level,OsNF-YA7,approximately 30%
